The compounds below were run against Serine/threonine-protein kinase B-raf [V600E] (Homo sapiens, UniProt P15056, V600E) (assay: BRAF V600E Enzyme Assay).
Method: A competitive displacement assay was configured for B-Raf that monitors the amount of a fluorescently-tagged “tracer” bound to B-Raf via TR-FRET from an anti-tag Eu-labeled antibody also bound to B-Raf. For full-length FLAG-tagged B-Raf(V600E), the assay mixtures consisted of 25 mM K+HEPES, pH 7.4, 10 mM MgCl2, 0.01% Triton X-100, 1 mM DTT, 2% DMSO (from compound), 50 nM Tracer 1710 (ThermoFisher, PR9176A), 0.5 nM Eu anti-FLAG (M2)-cryptate Ab (Cisbio, 61FG2KLB) and 5 nM full-length, N-terminally FLAG-tagged B-Raf(V600E) (Origene Technologies, TP700031. Compounds were typically diluted in DMSO across an 11-point dosing range created using a 3-fold serial dilution protocol at a top dose of 10 μM. The assay was run in 384-well, polystyrene, low-volume, non-treated, white microtiter plates (Costar 4512) in a final volume of 12 μL. Low control wells included 1 μM of a potent B-Raf inhibitor as a control. The assays were incubated at ambient temperature (typically 22° C.) for 60 min and then read on a PerkinElmer EnVision microplate reader using standard TRF settings (λEx=320 nm, λEm=615 & 665 nm).

Chain of Serine/threonine-protein kinase B-raf [V600E] (P15056 2-766 V600E limits assumed): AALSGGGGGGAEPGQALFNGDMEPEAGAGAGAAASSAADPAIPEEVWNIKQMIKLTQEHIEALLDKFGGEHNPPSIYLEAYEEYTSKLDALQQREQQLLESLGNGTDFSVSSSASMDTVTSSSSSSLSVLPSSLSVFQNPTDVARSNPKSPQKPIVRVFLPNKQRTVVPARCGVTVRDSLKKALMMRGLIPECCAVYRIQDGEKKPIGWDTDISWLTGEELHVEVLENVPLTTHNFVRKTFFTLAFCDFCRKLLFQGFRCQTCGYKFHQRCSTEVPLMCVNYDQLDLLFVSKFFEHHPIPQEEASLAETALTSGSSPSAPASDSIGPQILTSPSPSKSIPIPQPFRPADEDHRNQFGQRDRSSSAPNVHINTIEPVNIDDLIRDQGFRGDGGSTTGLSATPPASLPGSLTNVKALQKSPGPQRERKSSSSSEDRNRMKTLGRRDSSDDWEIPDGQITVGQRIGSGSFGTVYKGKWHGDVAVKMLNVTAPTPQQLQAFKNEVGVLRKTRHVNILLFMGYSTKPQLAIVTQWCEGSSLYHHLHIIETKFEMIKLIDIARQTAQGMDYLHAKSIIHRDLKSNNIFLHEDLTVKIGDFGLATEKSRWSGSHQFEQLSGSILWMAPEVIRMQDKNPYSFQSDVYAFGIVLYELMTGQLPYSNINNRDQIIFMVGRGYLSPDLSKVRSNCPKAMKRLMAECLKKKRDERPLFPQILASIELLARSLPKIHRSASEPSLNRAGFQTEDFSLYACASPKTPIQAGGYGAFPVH

IC50 [nM] | SMILES
8 | Cn1cnc2ccc(Nc3c(F)ccc(NS(=O)(=O)N4CC(OC(F)F)C4)c3Cl)c(Cl)c2c1=O [US12303509, Example 143]
7 | Cc1c(Nc2c(F)ccc(NS(=O)(=O)N3CC(C)(F)C3)c2Cl)ccc2ncn(C)c(=O)c12 [US12303509, Example 155]
29 | Cc1c(Nc2c(F)ccc(NS(=O)(=O)N3CC4(CCC4)C3)c2Cl)ccc2ncn(C)c(=O)c12 [US12303509, Example 157]
